{"source": "ChEMBL document CHEMBL3132769", "about": "“Fragment growing to retain or alter the selectivity of anchored kinase hinge-binding fragments” (Medchemcomm, 2014)", "key": {"[1]": {"target": "T1, Serine/threonine-protein kinase Nek2 (Homo sapiens) (UniProt P51955)", "T1 sequence (whole entry)": "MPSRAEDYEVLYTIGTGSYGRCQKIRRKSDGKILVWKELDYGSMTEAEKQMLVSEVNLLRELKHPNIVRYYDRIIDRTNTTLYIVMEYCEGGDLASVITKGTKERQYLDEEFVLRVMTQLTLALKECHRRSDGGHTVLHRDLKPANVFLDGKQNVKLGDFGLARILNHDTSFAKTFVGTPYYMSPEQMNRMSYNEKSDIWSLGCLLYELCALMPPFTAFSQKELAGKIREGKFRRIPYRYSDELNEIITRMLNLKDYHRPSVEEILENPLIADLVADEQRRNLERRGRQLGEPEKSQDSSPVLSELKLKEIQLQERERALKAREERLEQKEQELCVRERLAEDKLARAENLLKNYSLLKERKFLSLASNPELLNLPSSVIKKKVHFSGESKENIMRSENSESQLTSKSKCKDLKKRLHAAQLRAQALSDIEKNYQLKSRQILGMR", "assay": "Inhibition of human full length NEK2 expressed in baculovirus assessed as substrate phosphorylation using fluorescence-labelled peptides as substrate at 9 uM after 90 mins by microfluidic peptide phosphorylation assay"}, "[2]": {"target": "MAP kinase-activated protein kinase 2 (Homo sapiens) (UniProt P49137)", "sequence (P49137 whole entry, looked up)": "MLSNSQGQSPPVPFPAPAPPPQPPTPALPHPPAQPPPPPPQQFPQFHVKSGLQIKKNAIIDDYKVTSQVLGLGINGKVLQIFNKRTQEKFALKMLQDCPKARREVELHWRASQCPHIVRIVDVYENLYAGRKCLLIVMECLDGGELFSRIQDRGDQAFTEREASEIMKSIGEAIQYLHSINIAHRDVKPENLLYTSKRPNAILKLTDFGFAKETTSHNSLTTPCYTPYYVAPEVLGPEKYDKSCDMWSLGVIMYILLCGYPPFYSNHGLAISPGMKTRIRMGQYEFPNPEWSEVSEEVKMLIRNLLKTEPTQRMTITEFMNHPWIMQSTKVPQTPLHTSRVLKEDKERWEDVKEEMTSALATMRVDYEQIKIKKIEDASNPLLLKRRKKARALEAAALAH", "assay": "Inhibition of human full length MAPKAPK2 expressed in baculovirus assessed as substrate phosphorylation using fluorescence-labelled peptides as substrate at 9 uM after 90 mins by microfluidic peptide phosphorylation assay"}, "[3]": {"target": "MAP kinase-activated protein kinase 3 (Homo sapiens) (UniProt Q16644)", "sequence (Q16644 whole entry, looked up)": "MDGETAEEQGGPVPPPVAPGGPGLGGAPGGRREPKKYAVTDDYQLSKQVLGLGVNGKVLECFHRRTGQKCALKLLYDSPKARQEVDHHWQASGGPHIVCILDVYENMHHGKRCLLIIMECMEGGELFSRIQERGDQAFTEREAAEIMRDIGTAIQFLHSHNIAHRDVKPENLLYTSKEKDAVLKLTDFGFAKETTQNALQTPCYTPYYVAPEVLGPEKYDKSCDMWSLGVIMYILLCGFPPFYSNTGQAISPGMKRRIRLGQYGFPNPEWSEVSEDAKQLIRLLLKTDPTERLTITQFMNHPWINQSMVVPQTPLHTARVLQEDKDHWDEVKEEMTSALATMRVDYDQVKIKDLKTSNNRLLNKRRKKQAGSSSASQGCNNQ", "assay": "Inhibition of human full length MAPKAPK3 expressed in Escherichia coli cell assessed as substrate phosphorylation using fluorescence-labelled peptides as substrate at 2 uM after 90 mins by microfluidic peptide phosphorylation assay"}, "[4]": {"target": "MAP kinase-activated protein kinase 2 (Homo sapiens) (UniProt P49137)", "assay": "Inhibition of human full length MAPKAPK2 expressed in baculovirus assessed as substrate phosphorylation using fluorescence-labelled peptides as substrate at 2 uM after 90 mins by microfluidic peptide phosphorylation assay"}, "[5]": {"target": "Tyrosine-protein kinase HCK (Homo sapiens) (UniProt P08631)", "sequence (P08631 2-526 limits assumed)": "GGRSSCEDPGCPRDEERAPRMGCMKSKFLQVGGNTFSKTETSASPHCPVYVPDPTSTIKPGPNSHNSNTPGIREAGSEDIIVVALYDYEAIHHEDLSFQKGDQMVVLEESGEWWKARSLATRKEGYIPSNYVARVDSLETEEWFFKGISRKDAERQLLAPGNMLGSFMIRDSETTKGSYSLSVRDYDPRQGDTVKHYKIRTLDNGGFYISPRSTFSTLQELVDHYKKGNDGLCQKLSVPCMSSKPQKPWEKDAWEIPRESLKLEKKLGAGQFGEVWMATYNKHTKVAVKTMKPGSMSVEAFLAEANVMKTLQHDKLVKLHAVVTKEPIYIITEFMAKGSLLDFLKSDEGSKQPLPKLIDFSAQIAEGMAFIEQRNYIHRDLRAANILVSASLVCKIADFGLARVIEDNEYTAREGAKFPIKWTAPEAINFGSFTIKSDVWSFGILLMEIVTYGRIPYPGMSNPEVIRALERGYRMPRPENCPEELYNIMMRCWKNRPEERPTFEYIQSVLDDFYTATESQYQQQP", "assay": "Inhibition of human HCK catalytic domain expressed in baculovirus assessed as substrate phosphorylation using fluorescence-labelled peptides as substrate at 0.1 uM after 90 mins by microfluidic peptide phosphorylation assay"}, "[6]": {"target": "T2, Serine/threonine-protein kinase BRSK2 (Homo sapiens) (UniProt Q8IWQ3)", "T2 sequence (whole entry)": "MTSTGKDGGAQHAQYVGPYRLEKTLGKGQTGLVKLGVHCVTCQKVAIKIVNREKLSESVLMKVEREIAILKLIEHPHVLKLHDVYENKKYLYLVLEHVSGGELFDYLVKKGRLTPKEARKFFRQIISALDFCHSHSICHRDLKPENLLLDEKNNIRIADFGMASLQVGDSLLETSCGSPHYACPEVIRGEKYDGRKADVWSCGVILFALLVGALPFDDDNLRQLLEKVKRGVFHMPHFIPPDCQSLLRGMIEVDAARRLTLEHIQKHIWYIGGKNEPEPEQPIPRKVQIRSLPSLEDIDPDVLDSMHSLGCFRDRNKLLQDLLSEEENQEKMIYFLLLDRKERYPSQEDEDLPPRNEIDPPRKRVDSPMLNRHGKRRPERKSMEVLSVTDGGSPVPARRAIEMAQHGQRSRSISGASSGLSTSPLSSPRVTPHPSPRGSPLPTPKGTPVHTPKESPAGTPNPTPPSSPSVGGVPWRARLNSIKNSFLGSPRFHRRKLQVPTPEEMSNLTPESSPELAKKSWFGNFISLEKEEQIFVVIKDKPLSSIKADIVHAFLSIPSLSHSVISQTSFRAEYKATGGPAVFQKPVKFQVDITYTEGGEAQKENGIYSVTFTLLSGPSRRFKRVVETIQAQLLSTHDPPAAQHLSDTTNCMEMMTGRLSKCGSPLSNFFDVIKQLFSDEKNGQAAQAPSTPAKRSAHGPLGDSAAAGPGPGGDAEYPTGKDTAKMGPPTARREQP", "assay": "Inhibition of human truncated BRSK2 expressed in baculovirus assessed as substrate phosphorylation using fluorescence-labelled peptides as substrate at 95 uM after 90 mins by microfluidic peptide phosphorylation assay"}, "[7]": {"target": "Ribosomal protein S6 kinase alpha-2 (Homo sapiens) (UniProt Q15349)", "sequence (Q15349 whole entry)": "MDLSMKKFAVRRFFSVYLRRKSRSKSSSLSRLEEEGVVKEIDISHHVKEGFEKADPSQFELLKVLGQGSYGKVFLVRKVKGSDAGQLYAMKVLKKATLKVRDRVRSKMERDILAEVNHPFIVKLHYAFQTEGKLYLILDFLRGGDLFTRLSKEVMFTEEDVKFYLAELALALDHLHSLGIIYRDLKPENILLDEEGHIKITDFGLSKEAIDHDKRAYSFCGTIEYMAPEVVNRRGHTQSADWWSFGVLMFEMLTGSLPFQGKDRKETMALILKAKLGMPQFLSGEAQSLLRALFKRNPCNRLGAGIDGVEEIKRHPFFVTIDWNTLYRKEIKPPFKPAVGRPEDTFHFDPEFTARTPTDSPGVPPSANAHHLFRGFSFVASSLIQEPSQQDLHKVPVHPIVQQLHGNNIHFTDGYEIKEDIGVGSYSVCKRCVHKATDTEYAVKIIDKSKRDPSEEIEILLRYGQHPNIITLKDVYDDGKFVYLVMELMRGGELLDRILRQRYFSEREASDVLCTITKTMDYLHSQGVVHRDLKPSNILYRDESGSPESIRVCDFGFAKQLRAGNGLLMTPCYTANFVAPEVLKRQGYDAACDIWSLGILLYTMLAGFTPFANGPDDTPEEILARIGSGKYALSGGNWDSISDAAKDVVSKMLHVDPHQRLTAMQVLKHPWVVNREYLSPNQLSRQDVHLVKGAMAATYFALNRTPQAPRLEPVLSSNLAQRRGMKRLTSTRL", "assay": "Inhibition of human full length RSK3 expressed in baculovirus assessed as substrate phosphorylation using fluorescence-labelled peptides as substrate at 95 uM after 90 mins by microfluidic peptide phosphorylation assay"}, "[8]": {"target": "Protein kinase C gamma type (Homo sapiens) (UniProt P05129)", "assay": "Inhibition of human truncated PKC gamma expressed in baculovirus assessed as substrate phosphorylation using fluorescence-labelled peptides as substrate at 70 uM after 90 mins by microfluidic peptide phosphorylation assay"}, "[9]": {"target": "Mitogen-activated protein kinase 14 (Homo sapiens) (UniProt Q16539)", "sequence (Q16539 whole entry, the tested form may be a part)": "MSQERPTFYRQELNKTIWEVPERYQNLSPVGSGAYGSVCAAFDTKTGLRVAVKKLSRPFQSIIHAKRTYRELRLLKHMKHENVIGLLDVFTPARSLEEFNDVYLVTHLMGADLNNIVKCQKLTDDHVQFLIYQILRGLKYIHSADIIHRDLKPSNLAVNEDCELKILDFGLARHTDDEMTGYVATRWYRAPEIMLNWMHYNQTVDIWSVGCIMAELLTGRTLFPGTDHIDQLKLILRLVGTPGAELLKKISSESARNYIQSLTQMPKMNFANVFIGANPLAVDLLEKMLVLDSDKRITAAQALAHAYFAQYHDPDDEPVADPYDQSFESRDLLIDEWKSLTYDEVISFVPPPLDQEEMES", "assay": "Inhibition of human truncated p38 alpha expressed in Escherichia coli cell assessed as substrate phosphorylation using fluorescence-labelled peptides as substrate at 70 uM after 90 mins by microfluidic peptide phosphorylation assay"}, "[10]": {"target": "T3, Protein kinase C epsilon type (Homo sapiens) (UniProt Q02156)", "T3 sequence (whole entry)": "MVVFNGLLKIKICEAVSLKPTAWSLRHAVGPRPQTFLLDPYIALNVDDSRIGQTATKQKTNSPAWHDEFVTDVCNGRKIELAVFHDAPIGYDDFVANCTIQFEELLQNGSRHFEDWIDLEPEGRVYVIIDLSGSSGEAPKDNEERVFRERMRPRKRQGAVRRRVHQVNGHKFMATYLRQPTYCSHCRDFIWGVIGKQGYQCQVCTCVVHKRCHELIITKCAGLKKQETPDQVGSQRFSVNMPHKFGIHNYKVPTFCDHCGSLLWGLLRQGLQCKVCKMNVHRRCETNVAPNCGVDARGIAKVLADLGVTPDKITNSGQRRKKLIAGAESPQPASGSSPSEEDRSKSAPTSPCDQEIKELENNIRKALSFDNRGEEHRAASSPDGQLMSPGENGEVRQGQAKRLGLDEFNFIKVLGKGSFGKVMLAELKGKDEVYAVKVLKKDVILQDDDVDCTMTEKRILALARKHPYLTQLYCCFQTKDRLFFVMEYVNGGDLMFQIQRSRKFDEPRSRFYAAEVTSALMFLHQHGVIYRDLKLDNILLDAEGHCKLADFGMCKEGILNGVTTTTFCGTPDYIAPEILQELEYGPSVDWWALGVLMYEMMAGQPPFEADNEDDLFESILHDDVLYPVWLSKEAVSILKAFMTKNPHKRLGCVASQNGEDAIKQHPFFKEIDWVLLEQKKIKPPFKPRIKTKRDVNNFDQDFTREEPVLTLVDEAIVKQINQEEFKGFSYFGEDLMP", "assay": "Inhibition of human truncated PKC epsilon expressed in baculovirus assessed as substrate phosphorylation using fluorescence-labelled peptides as substrate at 1000 uM after 90 mins by microfluidic peptide phosphorylation assay"}}, "data": [{"molecule": "NCC1CN(c2ncnc3[nH]c4cnccc4c23)CCO1", "note": "(stereo not given)", "values": [{"measurement": "inhibition", "setting": "[1]", "value": 6, "unit": "%"}, {"measurement": "inhibition", "setting": "[2]", "value": 19.5, "unit": "%"}]}, {"molecule": "NC1CCN(c2ncnc3[nH]ccc23)CC1", "values": [{"measurement": "inhibition", "setting": "[3]", "value": 45.5, "unit": "%"}, {"measurement": "inhibition", "setting": "[4]", "value": 33, "unit": "%"}]}, {"molecule": "C[C@H](CN(C)C)Oc1nc(Nc2cc3cccc(Cl)c3cn2)cnc1C#N", "values": [{"measurement": "inhibition", "setting": "[5]", "value": 4, "unit": "%"}]}, {"molecule": "NCCc1ccc(-c2ncnc3[nH]cnc23)cc1", "values": [{"measurement": "inhibition", "setting": "[6]", "value": 40, "unit": "%"}, {"measurement": "inhibition", "setting": "[7]", "value": 89, "unit": "%"}]}, {"molecule": "CNCc1ccc(-c2ncnc3[nH]cnc23)cc1", "values": [{"measurement": "inhibition", "setting": "[8]", "value": 64, "unit": "%"}, {"measurement": "inhibition", "setting": "[9]", "value": 0, "unit": "%"}]}, {"molecule": "c1cnc2[nH]ccc2c1", "values": [{"measurement": "inhibition", "setting": "[10]", "value": 38, "unit": "%"}]}]}
